Here are results for 31 compounds from ChEMBL document CHEMBL5149992, “Discovery, Optimization, and Evaluation of Quinazolinone Derivatives with Novel Linkers as Orally Efficacious Phosphoinositide-3-Kinase Delta Inhibitors for Treatment of Inflammatory Diseases” (J Med Chem, 2021).

As a reminder, the inhibition is the drop in the measured response relative to a control, in per cent. The term half-life denotes the time in which the quantity being followed falls by half. Read a low half-life as rapid decline. Usually IC50 stands for the concentration that inhibits the measured activity by half. Low values mean inhibition by little substance, high ones a need for much substance.

Data set [1] deals with T1, Phosphatidylinositol 4,5-bisphosphate 3-kinase catalytic subunit delta isoform (Homo sapiens) (UniProt O00329).
T1 sequence (whole entry): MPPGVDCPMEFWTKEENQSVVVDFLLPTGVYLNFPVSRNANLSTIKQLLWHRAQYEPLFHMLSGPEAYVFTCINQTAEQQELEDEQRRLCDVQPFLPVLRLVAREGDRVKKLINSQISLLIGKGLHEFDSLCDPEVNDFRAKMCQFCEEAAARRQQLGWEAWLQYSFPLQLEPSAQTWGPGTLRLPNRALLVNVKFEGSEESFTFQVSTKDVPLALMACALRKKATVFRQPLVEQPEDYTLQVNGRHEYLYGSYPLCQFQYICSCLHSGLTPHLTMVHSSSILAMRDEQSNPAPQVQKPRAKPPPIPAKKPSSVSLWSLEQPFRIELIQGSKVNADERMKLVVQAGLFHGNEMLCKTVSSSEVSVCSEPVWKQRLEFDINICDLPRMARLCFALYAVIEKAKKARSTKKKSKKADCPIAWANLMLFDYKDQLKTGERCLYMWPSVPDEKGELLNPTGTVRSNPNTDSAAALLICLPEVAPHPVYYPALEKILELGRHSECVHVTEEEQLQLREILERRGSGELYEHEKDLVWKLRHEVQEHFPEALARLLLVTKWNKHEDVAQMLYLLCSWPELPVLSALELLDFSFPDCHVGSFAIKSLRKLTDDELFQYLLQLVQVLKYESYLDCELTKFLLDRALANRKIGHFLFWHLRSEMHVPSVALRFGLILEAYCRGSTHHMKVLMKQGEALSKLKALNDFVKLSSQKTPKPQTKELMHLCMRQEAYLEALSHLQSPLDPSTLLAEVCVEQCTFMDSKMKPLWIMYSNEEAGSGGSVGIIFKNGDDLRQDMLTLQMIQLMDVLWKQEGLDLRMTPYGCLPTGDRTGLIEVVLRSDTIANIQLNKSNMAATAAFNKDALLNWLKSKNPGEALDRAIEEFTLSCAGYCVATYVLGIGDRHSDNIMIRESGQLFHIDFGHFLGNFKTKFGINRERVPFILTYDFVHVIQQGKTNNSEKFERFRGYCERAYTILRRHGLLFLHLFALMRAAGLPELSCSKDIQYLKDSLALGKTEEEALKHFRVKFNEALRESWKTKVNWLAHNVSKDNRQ
The data set can be described thus: Inhibition of PI3Kdelta (unknown origin) at 0.01 uM using phosphatidylinositol as substrate incubated for 30 mins in presence of ATP by HTRF based assay relative to control. For orientation: TR-FRET usually uses a lanthanide donor and a delayed reading to cut background.

Data set [2] addresses T1, Phosphatidylinositol 4,5-bisphosphate 3-kinase catalytic subunit delta isoform (Homo sapiens). The data set can be described thus: Inhibition of PI3Kdelta (unknown origin) at 0.1 uM using phosphatidylinositol as substrate incubated for 30 mins in presence of ATP by HTRF based assay relative to control.
For data set [3] the following is noted: human, microsomes, 10 µM.
Data set [4] is described as follows: in vitro. The settings on record: human, liver microsomes. Background: Microsomes from liver hold many membrane-bound enzymes, among them those of drug oxidation.
In data set [5] the target is T2, Phosphatidylinositol 4,5-bisphosphate 3-kinase catalytic subunit delta isoform (Homo sapiens, UniProt O00329).
T2 sequence (O00329 whole entry): T1 sequence (whole entry)
The experiment in a line: Inhibition of PI3Kdelta (unknown origin).

The target of data set [6] is Phosphatidylinositol 4,5-bisphosphate 3-kinase catalytic subunit gamma isoform (Homo sapiens, UniProt P48736). The data set can be described thus: Inhibition of PI3Kgamma (unknown origin).
Data set [7] deals with T3, Phosphatidylinositol 4,5-bisphosphate 3-kinase catalytic subunit beta isoform (Homo sapiens, UniProt P42338). The experiment in a line: Inhibition of PI3Kbeta (unknown origin).
Target sequence in this assay (P42338 whole entry, canonical isoform): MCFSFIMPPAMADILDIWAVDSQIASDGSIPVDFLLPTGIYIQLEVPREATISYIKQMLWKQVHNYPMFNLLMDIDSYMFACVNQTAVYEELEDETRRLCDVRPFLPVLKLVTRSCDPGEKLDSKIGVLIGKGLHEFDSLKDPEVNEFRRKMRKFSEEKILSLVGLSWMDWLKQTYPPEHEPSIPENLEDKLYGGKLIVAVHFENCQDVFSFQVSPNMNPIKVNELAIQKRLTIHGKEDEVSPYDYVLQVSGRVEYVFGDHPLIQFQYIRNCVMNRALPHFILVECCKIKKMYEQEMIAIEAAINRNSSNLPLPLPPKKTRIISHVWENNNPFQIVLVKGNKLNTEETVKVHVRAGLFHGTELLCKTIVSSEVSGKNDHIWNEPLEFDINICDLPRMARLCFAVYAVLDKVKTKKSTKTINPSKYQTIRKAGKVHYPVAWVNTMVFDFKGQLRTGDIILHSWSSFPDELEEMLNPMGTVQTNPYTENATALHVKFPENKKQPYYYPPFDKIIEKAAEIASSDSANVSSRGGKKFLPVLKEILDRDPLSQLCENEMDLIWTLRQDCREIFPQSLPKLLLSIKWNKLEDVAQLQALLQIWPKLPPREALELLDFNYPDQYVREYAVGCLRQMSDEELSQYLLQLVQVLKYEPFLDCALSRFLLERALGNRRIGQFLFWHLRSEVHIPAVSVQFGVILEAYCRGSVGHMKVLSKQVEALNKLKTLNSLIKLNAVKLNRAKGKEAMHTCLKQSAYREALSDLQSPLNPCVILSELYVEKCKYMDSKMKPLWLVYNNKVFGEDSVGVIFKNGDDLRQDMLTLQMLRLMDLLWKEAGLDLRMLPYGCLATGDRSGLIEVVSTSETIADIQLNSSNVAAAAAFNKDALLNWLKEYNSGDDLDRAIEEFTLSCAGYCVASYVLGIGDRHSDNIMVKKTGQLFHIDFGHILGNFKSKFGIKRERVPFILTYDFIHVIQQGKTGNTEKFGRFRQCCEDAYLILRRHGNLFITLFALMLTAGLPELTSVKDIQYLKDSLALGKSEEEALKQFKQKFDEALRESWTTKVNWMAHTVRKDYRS
Data set [8] concerns the target T4, Phosphatidylinositol 4,5-bisphosphate 3-kinase catalytic subunit alpha isoform (Homo sapiens, UniProt P42336). The experiment in a line: Inhibition of PI3Kalpha (unknown origin).
Data set [9] deals with T4, Phosphatidylinositol 4,5-bisphosphate 3-kinase catalytic subunit alpha isoform. The experiment in a line: Inhibition of PI3Kalpha (unknown origin) at 0.1 uM relative to control.
Data set [10] concerns the target T3, Phosphatidylinositol 4,5-bisphosphate 3-kinase catalytic subunit beta isoform. The experiment in a line: Inhibition of PI3Kbeta (unknown origin) at 0.1 uM relative to control.
Target sequence in this assay (P42338 whole entry, looked up, canonical isoform): as the sequence (P42338 whole entry, canonical isoform) above

T4 sequence (P42336 whole entry, canonical isoform): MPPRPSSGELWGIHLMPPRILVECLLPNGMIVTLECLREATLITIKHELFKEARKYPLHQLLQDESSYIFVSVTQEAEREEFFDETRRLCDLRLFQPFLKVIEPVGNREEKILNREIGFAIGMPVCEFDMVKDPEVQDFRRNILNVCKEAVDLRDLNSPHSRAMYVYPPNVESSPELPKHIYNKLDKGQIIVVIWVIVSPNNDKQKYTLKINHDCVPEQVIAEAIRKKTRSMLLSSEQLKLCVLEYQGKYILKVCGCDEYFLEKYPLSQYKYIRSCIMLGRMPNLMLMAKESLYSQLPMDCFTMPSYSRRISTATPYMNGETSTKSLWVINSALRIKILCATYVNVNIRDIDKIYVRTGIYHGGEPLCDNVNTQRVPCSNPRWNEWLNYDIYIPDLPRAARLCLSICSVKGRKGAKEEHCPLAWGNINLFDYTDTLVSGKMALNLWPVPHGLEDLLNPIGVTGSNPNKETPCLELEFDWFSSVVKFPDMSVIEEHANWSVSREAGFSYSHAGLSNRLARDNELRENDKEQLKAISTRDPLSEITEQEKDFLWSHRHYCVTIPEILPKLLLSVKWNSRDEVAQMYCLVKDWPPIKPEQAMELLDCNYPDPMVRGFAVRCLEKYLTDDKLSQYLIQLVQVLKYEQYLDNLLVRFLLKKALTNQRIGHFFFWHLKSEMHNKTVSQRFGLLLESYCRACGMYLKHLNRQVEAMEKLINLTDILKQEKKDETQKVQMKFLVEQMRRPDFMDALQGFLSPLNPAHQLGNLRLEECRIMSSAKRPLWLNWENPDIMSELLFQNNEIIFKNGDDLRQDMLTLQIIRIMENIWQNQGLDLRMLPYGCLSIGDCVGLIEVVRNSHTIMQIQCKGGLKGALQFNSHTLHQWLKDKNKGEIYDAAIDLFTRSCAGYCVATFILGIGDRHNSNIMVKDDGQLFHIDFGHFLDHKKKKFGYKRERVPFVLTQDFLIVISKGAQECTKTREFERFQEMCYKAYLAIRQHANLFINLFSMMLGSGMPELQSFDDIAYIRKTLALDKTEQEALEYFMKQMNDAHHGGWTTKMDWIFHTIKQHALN
Sequence of Phosphatidylinositol 4,5-bisphosphate 3-kinase catalytic subunit gamma isoform (P48736 whole entry, canonical isoform): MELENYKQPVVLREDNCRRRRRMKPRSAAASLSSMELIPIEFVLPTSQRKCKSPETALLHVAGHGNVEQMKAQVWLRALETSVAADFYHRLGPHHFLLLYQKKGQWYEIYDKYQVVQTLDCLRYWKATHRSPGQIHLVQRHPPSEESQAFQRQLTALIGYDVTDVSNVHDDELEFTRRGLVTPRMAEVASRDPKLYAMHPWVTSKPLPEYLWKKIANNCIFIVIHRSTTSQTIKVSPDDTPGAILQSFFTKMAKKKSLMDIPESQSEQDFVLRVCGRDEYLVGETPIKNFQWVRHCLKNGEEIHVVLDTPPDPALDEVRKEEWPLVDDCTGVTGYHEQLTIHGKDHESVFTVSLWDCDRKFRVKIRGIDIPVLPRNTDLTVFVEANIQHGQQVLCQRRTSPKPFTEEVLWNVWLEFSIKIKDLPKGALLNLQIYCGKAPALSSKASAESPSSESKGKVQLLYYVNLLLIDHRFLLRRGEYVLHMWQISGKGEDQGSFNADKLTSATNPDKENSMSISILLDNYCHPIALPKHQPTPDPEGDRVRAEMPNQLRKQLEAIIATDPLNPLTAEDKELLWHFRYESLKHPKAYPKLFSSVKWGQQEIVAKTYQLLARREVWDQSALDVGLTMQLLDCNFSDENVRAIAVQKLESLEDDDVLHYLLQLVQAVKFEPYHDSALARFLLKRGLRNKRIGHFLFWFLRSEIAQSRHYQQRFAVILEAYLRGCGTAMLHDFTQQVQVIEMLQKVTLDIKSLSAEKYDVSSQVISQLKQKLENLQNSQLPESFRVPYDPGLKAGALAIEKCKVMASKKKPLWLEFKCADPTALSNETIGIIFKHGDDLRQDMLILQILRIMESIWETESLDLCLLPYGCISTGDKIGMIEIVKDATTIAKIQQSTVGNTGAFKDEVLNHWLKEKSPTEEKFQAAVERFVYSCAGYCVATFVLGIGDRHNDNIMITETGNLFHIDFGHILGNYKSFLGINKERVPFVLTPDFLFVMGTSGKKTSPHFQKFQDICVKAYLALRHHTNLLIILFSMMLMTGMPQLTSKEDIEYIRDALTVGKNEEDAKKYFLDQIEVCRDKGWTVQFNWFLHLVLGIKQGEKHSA

With `Nc1ccnc(N2[C@H](c3nc4cccc(Cl)c4c(=O)n3-c3ccccc3)C[C@@H]3CCCC[C@@H]32)n1`, the inhibition in data set [1] was -1%; in data set [2], -3%.

Turning to `O=c1c2c(Cl)cccc2nc([C@@H]2C[C@@H]3CCCC[C@@H]3N2c2nccc(Cl)n2)n1-c1ccccc1`, the inhibition in data set [1] and in [2] was -2% throughout.

On to `C=CCO[C@@H]1C[C@@H](c2nc3cccc(Cl)c3c(=O)n2-c2ccccc2)N(c2nc(N)nc3[nH]cnc23)C1`, for which the inhibition was 7% in data set [1] and 42% in data set [2].

With `O=c1c2c(Cl)cccc2nc([C@@H]2C[C@@H]3CCCC[C@@H]3N2c2ncnc3[nH]ccc23)n1-c1ccccc1`, the figures for the inhibition in [1] and in data set [2] were 1% and 3%, respectively.

With `C=C1C[C@@H](c2nc3cccc(Cl)c3c(=O)n2-c2ccccc2)N(c2nc(N)nc3[nH]cnc23)C1`, the inhibition was found to be 52% in data set [1] and 96% in data set [2].

For `C=CCO[C@@H]1C[C@@H](c2nc3cccc(Cl)c3c(=O)n2-c2ccccc2)N(c2ncnc(N)c2C#N)C1`, the values for the inhibition in [1] and in [2] were 17% and 47%, respectively. In [3], this compound came in with a CLH of 767 mL/min/g. In data set [4], this compound displayed a half-life at 60 h, 10 µM of 0.03 h. In addition, the IC50 in data set [5] came to 67 nM.

As for `O=c1c2c(Cl)cccc2nc([C@@H]2C[C@@H]3CCCC[C@@H]3N2c2ncnc3[nH]cnc23)n1-c1ccccc1`, the values for the inhibition in data set [1] and in [2] were 0% and 8%, respectively.

Regarding `N#Cc1cccnc1N1[C@H](c2nc3cccc(Cl)c3c(=O)n2-c2ccccc2)C[C@@H]2CCCC[C@@H]21`, the inhibition in data set [1] was -1%; in [2], 0%.

Regarding `O=c1c2c(Cl)cccc2nc([C@@H]2CC(F)(F)CN2c2ncnc3[nH]cnc23)n1-c1ccccc1`, the inhibition in [1] worked out at 4%; in [2] it was 34%.

With `C[C@H]1CC[C@@H](c2nc3cccc(Cl)c3c(=O)n2-c2ccccc2)N1c1ncnc(N)c1C#N`, the CLH in data set [3] came to 22.6 mL/min/g. For the same compound, the IC50 in data set [6] was 144 nM; in [7], 968 nM; in data set [5] it was 5 nM; in data set [8], > 1000 nM. The half-life at 60 h, 10 µM in data set [4] came out at 1.02 h.

For `C[C@H]1CC[C@@H](c2nc3cccc(Cl)c3c(=O)n2-c2cccc(F)c2)N1c1nc(N)nc2[nH]cnc12`, the IC50 in [6] and in [5] was 9 nM each time. Moreover, the inhibition in data set [9] came out at 42%; in [10], 43%.

Take `O=c1c2c(Cl)cccc2nc([C@@H]2CC(F)(F)CN2c2ncnc3[nH]ccc23)n1-c1ccccc1`: the inhibition turned out to be 4% in data set [1] and 26% in data set [2].

`C[C@H]1CC[C@@H](c2nc3cccc(Cl)c3c(=O)n2-c2cccc(F)c2)N1c1ncnc(N)c1C#N` had a CLH in data set [3] of 10.4 mL/min/g. In addition, the IC50 in data set [6] was 199 nM; in data set [7], > 1000 nM; in [5] it was 3 nM; in data set [8], > 1000 nM. Besides, in [4], the half-life at 60 h, 10 µM came to 2.22 h.

As for `Nc1nc(N2CC(F)(F)C[C@H]2c2nc3cccc(Cl)c3c(=O)n2-c2ccccc2)c2nc[nH]c2n1`, the inhibition in [1] was 11%; in data set [2] it was 50%.

The compound `Nc1nc(N2CCC[C@H]2c2nc3cccc(Cl)c3c(=O)n2-c2ccccc2)c2nc[nH]c2n1` had a CLH in [3] of 21.8 mL/min/g. Also, the half-life at 60 h, 10 µM in data set [4] came to 1.06 h.

Regarding `O=c1c2c(Cl)cccc2nc([C@@H]2C[C@@H]3CCCC[C@@H]3N2c2ncnc3[nH]ncc23)n1-c1ccccc1`, the inhibition in data set [1] and in [2] was -3% in each case.

`C=CCO[C@@H]1C[C@@H](c2nc3cccc(Cl)c3c(=O)n2-c2ccccc2)N(c2ncnc3[nH]cnc23)C1`: the inhibition amounted to 1% in data set [1] and 8% in data set [2].

For `O=c1c2c(Cl)cccc2nc([C@@H]2CC3(CC3)CN2c2ncnc3[nH]ccc23)n1-c1ccccc1`, the inhibition in [1] stood at 2%; in data set [2], 8%.

Regarding `C=C1C[C@@H](c2nc3cccc(Cl)c3c(=O)n2-c2ccccc2)N(c2ncnc(N)c2C#N)C1`, the inhibition stood at 79% in [1] and 102% in data set [2]. The CLH in data set [3] came to 103.8 mL/min/g. In addition, the IC50 was 250 nM in data set [6], 819 nM in data set [7], 3 nM in data set [5] and > 1000 nM in data set [8]. Besides, the half-life at 60 h, 10 µM in [4] was determined as 0.223 h.

On to `O=c1c2c(Cl)cccc2nc([C@@H]2CC3(CC3)CN2c2ncnc3[nH]cnc23)n1-c1ccccc1`, for which the inhibition in data set [1] was 3%; in data set [2] it was 32%.

Regarding `C[C@H]1CC[C@@H](c2nc3cccc(Cl)c3c(=O)n2-c2cccc(F)c2)N1c1ncnc2[nH]ccc12`, the IC50 worked out at 74 nM in data set [6] and 30 nM in data set [5]. The inhibition in [9] came to 19%.

Consider `C=C1C[C@@H](c2nc3cccc(Cl)c3c(=O)n2-c2ccccc2)N(c2ncnc3[nH]ccc23)C1`, for which the inhibition in data set [1] turned out to be 12%; in data set [2] it was 59%.

In the case of `C=C1C[C@@H](c2nc3cccc(Cl)c3c(=O)n2-c2ccccc2)N(c2ncnc3[nH]cnc23)C1`, the inhibition was 28% in data set [1] and 75% in [2].

As for `Cc1ccnc(N2[C@H](c3nc4cccc(Cl)c4c(=O)n3-c3ccccc3)C[C@@H]3CCCC[C@@H]32)n1`, the inhibition in data set [1] and in data set [2] was -1% in each case.

For the compound `Nc1nc(N2[C@H](c3nc4cccc(Cl)c4c(=O)n3-c3ccccc3)C[C@@H]3CCCC[C@@H]32)c2nc[nH]c2n1`, the values for the inhibition in [1] and in [2] were 2% and 6%, respectively.

As to `N#Cc1c(N)ncnc1N1[C@H](c2nc3cccc(Cl)c3c(=O)n2-c2cc(F)cc(F)c2)C[C@@H]2CCCC[C@@H]21`, the CLH in [3] was < 12 mL/min/g. Further, the concentration for half-maximal inhibition (IC50) in [6] was > 1000 nM; in data set [7] it was > 1000 nM; in data set [5] it was 142 nM; in data set [8] it was > 1000 nM. Further, in data set [4], the half-life at 60 h, 10 µM is > 2 h.

As for `Nc1nc(N2CC3(CC3)C[C@H]2c2nc3cccc(Cl)c3c(=O)n2-c2ccccc2)c2nc[nH]c2n1`, the inhibition in data set [1] was determined as 8%; in data set [2], 44%.

As for `N#Cc1c(N)ncnc1N1CC2(CC2)C[C@H]1c1nc2cccc(Cl)c2c(=O)n1-c1ccccc1`, the results for the inhibition in [1] and in data set [2] were 23% and 83%, respectively. Besides, the CLH in data set [3] is 27.6 mL/min/g. The half-maximal inhibitory concentration (IC50) in [6] is 655 nM; in data set [7] it was > 1000 nM; in [5], 20 nM; in data set [8] it was > 1000 nM. The compound also yielded a half-life at 60 h, 10 µM in [4] of 0.837 h.

Regarding `O=c1c2c(Cl)cccc2nc([C@@H]2C[C@@H]3CCCC[C@@H]3N2c2nc(Cl)nc3[nH]cnc23)n1-c1ccccc1`, the figures for the inhibition in data set [1] and in [2] were -1% and 1%, respectively.

Compound `N#Cc1c(N)ncnc1N1[C@H](c2nc3cccc(F)c3c(=O)n2-c2cc(F)cc(F)c2)C[C@@H]2CCCC[C@@H]21` showed a CLH in [3] of 2.4 mL/min/g. Also, the IC50 was > 1000 nM in [6], > 1000 nM in [7], 305 nM in data set [5] and > 1000 nM in [8]. Also, the half-life at 60 h, 10 µM in data set [4] came out at 9.62 h.

Turning to `C=CCO[C@@H]1C[C@@H](c2nc3cccc(Cl)c3c(=O)n2-c2ccccc2)N(c2ncnc3[nH]ccc23)C1`, the values for the inhibition in data set [1] and in data set [2] were 2% and 7%, respectively.
